Measured values as given in the supplement of paper PMC10307832.

Key:
Assay in all cases: relative viability (nuclei count vs DMSO), 5 days (fraction); higher = more cells survive
[1] = compound: CCOc1cc2ncc(C#N)c(Nc3ccc(OCc4ccccn4)c(Cl)c3)c2cc1NC(=O)/C=C/CN(C)C [Neratinib] + Nc1nc2[nH]cc(CCc3ccc(C(=O)N[C@@H](CCC(=O)O)C(=O)O)cc3)c2c(=O)[nH]1 [Pemetrexed] (partner 0.2 µM)
How it was run: (§1)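 Relative viability equals treated-well nuclei counts divided by vehicle-well nuclei counts. Counts came from 4× images of lung cancer cell lines grown in 1536-well plates for 5 days after pin-tool dosing on the day after seeding. Dosing used one drug alone or a fixed anchor-drug dose plus five library-drug doses (not always all listed) in √10 steps, and values are medians of duplicate plates.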

[2] = compound: CCOc1cc2ncc(C#N)c(Nc3ccc(OCc4ccccn4)c(Cl)c3)c2cc1NC(=O)/C=C/CN(C)C [Neratinib] + O=C(CCCCCCC(=O)Nc1ccccc1)NO [Vorinostat] (partner 1 µM)
How it was run: as §1

[3] = compound: CCOc1cc2ncc(C#N)c(Nc3ccc(OCc4ccccn4)c(Cl)c3)c2cc1NC(=O)/C=C/CN(C)C [Neratinib] + C[C@]1(O)C[C@@H](c2nc(-c3ccc4ccc(-c5ccccc5)nc4c3)c3c(N)nccn32)C1 [Linsitinib] (partner 1 µM)
How it was run: as §1

[4] = compound: CCOc1cc2ncc(C#N)c(Nc3ccc(OCc4ccccn4)c(Cl)c3)c2cc1NC(=O)/C=C/CN(C)C [Neratinib] + CC1(C)CCC(c2ccc(Cl)cc2)=C(CN2CCN(c3ccc(C(=O)NS(=O)(=O)c4ccc(N[C@H](CCN5CCOCC5)CSc5ccccc5)c(S(=O)(=O)C(F)(F)F)c4)cc3)CC2)C1 [Navitoclax] (partner 0.5 µM)
How it was run: as §1

Row | Cell Line | relative viability ([1]; first compound 0.01 µM) | relative viability ([1]; first compound 0.03162 µM) | relative viability ([1]; first compound 0.1 µM) | relative viability ([1]; first compound 0.3162 µM) | relative viability ([1]; first compound 1 µM) | relative viability ([2]; first compound 0.01 µM) | relative viability ([2]; first compound 0.03162 µM) | relative viability ([2]; first compound 0.1 µM) | relative viability ([2]; first compound 0.3162 µM) | relative viability ([2]; first compound 1 µM) | relative viability ([3]; first compound 0.01 µM) | relative viability ([3]; first compound 0.03162 µM) | relative viability ([3]; first compound 0.1 µM) | relative viability ([3]; first compound 0.3162 µM) | relative viability ([3]; first compound 1 µM) | relative viability ([4]; first compound 0.01 µM) | relative viability ([4]; first compound 0.03162 µM) | relative viability ([4]; first compound 0.1 µM) | relative viability ([4]; first compound 0.3162 µM) | relative viability ([4]; first compound 1 µM)
1 | NCI-H2347 | 0.423 | 0.479 | 0.396 | 0.495 | 0.449 | 0.64 | 0.715 | 0.55 | 0.634 | 0.407 | 0.989 | 0.988 | 0.95 | 0.992 | 0.974 | 0.819 | 0.945 | 0.68 | 0.786 | 0.698
2 | NCI-H2405 | 1.19 | 1.16 | 1.02 | 1.04 |  | 1.32 | 1.18 | 0.955 | 1.04 | 0.891 | 0.945 | 1.03 | 0.836 | 0.792 | 0.469 | 0.904 | 0.887 | 0.784 | 0.785 | 0.188
3 | NCI-H3122 | 0.197 | 0.214 | 0.179 | 0.551 | 0.187 | 1.04 | 1.09 | 1.02 | 0.992 | 0.609 | 1.05 | 0.993 | 1.04 | 1.02 | 0.256 | 1.05 | 1.02 | 1.05 | 1.03 | 0.407
4 | PC-3 [JPC-3] | 1.44 | 1.32 | 1.07 | 0.564 | 0.43 | 1.14 | 0.82 | 0.783 | 0.424 | 0.665 | 1.03 | 1.03 | 0.894 |  | 0.348 | 0.731 | 0.826 | 0.784 | 0.624 | 0.333
5 | PC-14 | 0.128 | 0.118 | 0.14 | 0.141 | 0.0777 | 0.773 | 0.754 | 0.557 | 0.359 | 0.0625 | 0.979 | 1.1 | 0.872 | 0.639 | 0.216 | 0.988 | 1.01 | 0.928 | 0.936 | 0.24
6 | RERF-LC-KJ | 0.484 | 0.483 | 0.505 | 0.477 | 0.405 | 0.705 | 0.742 | 0.55 | 0.66 | 0.382 | 0.943 |  | 0.865 | 0.714 | 0.712 | 0.854 | 1.07 | 0.724 | 0.69 | 0.493
7 | SK-LU-1 | 1.01 | 0.999 | 0.932 | 0.917 | 0.49 | 0.805 | 0.878 | 0.728 | 0.651 | 0.421 | 1.15 | 1.31 | 0.876 | 0.629 | 0.401 | 0.842 | 0.979 |  | 0.0386 | 0.523
8 | SK-MES-1 | 1.01 | 0.925 | 0.89 | 0.529 | 0.308 | 1.12 | 1.08 | 1.05 | 0.925 | 0.29 |  | 1.09 | 0.888 | 0.507 | 0.395 | 1.38 | 1.3 | 1.06 | 0.651 | 0.432
9 | SW 1573 |  | 0.878 | 0.651 | 0.799 | 0.475 | 0.797 | 0.831 | 0.612 | 0.623 | 0.38 | 0.742 | 0.89 | 0.778 | 0.782 | 0.642 | 1.32 | 1.15 | 0.862 | 0.87 | 0.804
10 | UMC-11 | 0.786 | 0.785 | 0.525 | 0.683 | 0.51 | 0.434 | 0.417 | 0.296 | 0.332 | 0.283 | 0.925 | 1.07 | 0.655 | 0.921 | 0.684 | 0.283 | 0.332 | 0.264 | 0.316 | 0.252
